Patent US4166182A, “6-N-Propyl-8-methoxymethyl or methylmercaptomethylergolines and related compounds” (priority 1978, dated 1979)
Where a name gives a salt, the structure may show the parent alone. Read-outs that look alike come from different tables or passages of the source.

Experiments:
serotonin = test: Serotonin agonism
[1] = tested on: 6-hydroxydopamine-lesioned rats; test: Turning behavior in 6-hydroxydopamine-lesioned (nigro-neostriatal-lesioned) rats; format: in vivo, rat; conditions: for Latency of Effect: 1 mg./kg. (Table I); for responders at 1 mg/kg: Rattus norvegicus, read-out: % of Rats Exhibiting Turning Behavior
Protocol: In this test, nigro-neostriatal-lesioned rats are employed, which are prepared by the procedure of Ungerstedt and Arbuthnott, Brain Res, 24, 485 (1970). A compound having dopamine agonist activity causes the rats to turn in circles contralateral to the side of the lesion. After a latency period, which varies from compound to compound, the number of turns is counted over a 15-minute period.
The compounds were dissolved in water and the aqueous solution injected into the rat by the intraperitoneal route.

prolactin [2] = test: Inhibition of serum prolactin in reserpine-treated male rats; format: in vivo, Sprague-Dawley rat; parameters: Serum Prolactin Level: unit not given here; conditions: for inhibition in vivo at 0.05 mg/kg: Rattus norvegicus, read-out: Percent Inhibition of Serum Prolactin; for Serum Prolactin Level: reserpine-pretreated, controls: Exp. 1 30.4 ± 3.4, Exp. 2 55.2 ± 4.1, Exp. 3 42.3 ± 7.3
Protocol: Adult male rats of the Sprague-Dawley strain weighing about 200 g. were housed in an air-conditioned room with controlled lighting (lights on 6 a.m.-8 p.m.) and fed lab chow and water ad libitum. Each rat received an intraperitoneal injection of 2.0 mg. of reserpine in aqueous suspension 18 hours before administration of the ergoline derivative. The purpose of the reserpine was to keep prolactin levels uniformly elevated. The compounds under test were dissolved in 10 percent ethanol at a concentration of 10 mcg/ml. and were injected intraperitoneally at a standard dose of 50 mcg/kg. Each compound was administered to a group of 10 rats, and a control group of 10 intact males received an equivalent amount of 10 percent ethanol. One hour after treatment all rats were killed by decapitation, and 150 μl aliquots of serum were assayed for prolactin. The results were evaluated statistically using Student's "t" test to calculate the level of significance, "p", of the changes in prolactin level.

Parkinsonism = conditions: in vivo; cited from earlier work
prolactin [3] = conditions: cited from earlier work
dopamine receptors = conditions: cited from earlier work
[4] = 50 mcg/kg IP, 1 hour after treatment

Row | SMILES | Duration of Effect ([1]; IP, 1 mg./kg.) | Latency of Effect ([1]; IP) | responders at 1 mg/kg ([1]; ip) | inhibition in vivo at 0.05 mg/kg (prolactin [2]; ip, 1 h) | also measured
1 | CCCN1C[C@H](CSC)C[C@@H]2c3cccc4[nH]cc(c34)C[C@H]21 [D-6-n-Propyl-8β-methylmercaptomethylergoline] |  |  |  |  | serotonin agonist or antagonist (in words) (serotonin): serotonin agonists rather than serotonin antagonists
2 | CCCN1C[C@H](C[S+](C)[O-])C[C@@H]2c3cccc4[nH]cc(c34)C[C@H]21 (stereo partly drawn) [D-6-n-propyl-8β-methylsulfinylmethylergoline mesylate] | 1 h | 7 min | 100% | 92% | 
3 | CCCN1CC(CSC)=C[C@@H]2c3cccc4[nH]cc(c34)C[C@H]21 [D-6-n-propyl-8-methylmercaptomethyl-8-ergolene maleate] | 1 h | 4 min | 100% | 91% | Serum Prolactin Level (prolactin [2]; [4]): 3.9 ± 0.2
4 | CSC[C@@H]1C[C@@H]2c3cccc4[nH]cc(c34)C[C@H]2N(C)C1 [D-6-methyl-8β-methylmercaptomethylergoline mesylate, reference compound] | ~ 2 hours | 30 to 45 min | 50% | 58% | 
5 | CCCN1C[C@H](CSC)C=C2c3cccc4[nH]cc(c34)C[C@H]21 [D-6-n-propyl-8β-methylmercaptomethyl-9-ergolene] | ≥ 2 h | 4 min | 100% | 81% | 
6 | CN1C[C@H](CC#N)C[C@@H]2c3cccc4[nH]c(Cl)c(c34)C[C@H]21 [lergotrile] |  |  |  |  | usefulness in the treatment of Parkinsonism (in words) (Parkinsonism): useful in the treatment of Parkinsonism
7 | CC(C)C[C@H]1C(=O)N2CCC[C@H]2[C@]2(O)O[C@](NC(=O)[C@@H]3C=C4c5cccc6[nH]c(Br)c(c56)C[C@H]4N(C)C3)(C(C)C)C(=O)N12 [2-bromo-α-ergokryptine] |  |  |  |  | activity as prolactin inhibitors (in words) (prolactin [3]): activity as prolactin inhibitors; usefulness in the treatment of Parkinsonism (in words) (Parkinsonism): useful in the treatment of Parkinsonism
8 | CCCN1C[C@H](CSC)C[C@@H]2c3cccc4[nH]c(Br)c(c34)C[C@H]21 [D-2-bromo-6-n-propyl-8β-methylmercaptomethylergoline mesylate] | 1 h | 5 min | 100% | 89% | Serum Prolactin Level (prolactin [2]; [4]): 4.6 ± 0.4
9 | CN1CC(CC#N)C[C@@H]2c3cccc4[nH]cc(c34)C[C@H]21 (stereo partly drawn) [D-6-methyl-8-cyanomethylergoline] |  |  |  |  | activity as prolactin inhibitors (in words) (prolactin [3]): activity as prolactin inhibitors
10 | CCN1C[C@H](CSC)C[C@@H]2c3cccc4[nH]cc(c34)C[C@H]21 [D-6-ethyl-8β-methylmercaptomethylergoline mesylate] | ≥ 2 h | 9 min | 100% | 91% | Serum Prolactin Level (prolactin [2]; [4]): 3.9 ± 0.4
11 | CCCN1C[C@H](CSC)C[C@@H]2c3cccc4[nH]cc(c34)C[C@H]21 [D-6-n-propyl-8β-methylmercaptomethylergoline methanesulfonate] |  |  |  |  | responders at 1 mg/kg ([1]; IP, 1 mg./kg., aqueous solution): 100%; times more potent in the turning behavior test than the corresponding D-6-methyl derivative ([1]; from dose response curves): about 30 times; inhibition in vivo at 0.05 mg/kg (prolactin [2]; 50 mcg/kg IP, 1 hour after treatment, versus control of same experiment): 95%; times more potent as a prolactin inhibitor than the corresponding D-6-methyl compound (prolactin [2]; from dose response curves): about 100 times
12 | CCCN1C[C@H](COC)C[C@@H]2c3cccc4[nH]cc(c34)C[C@H]21 [D-6-n-propyl-8β-methoxymethylergoline methanesulfonate] | ≥ 2 h | 6 min | 100% | 96% | Serum Prolactin Level (prolactin [2]; [4]): 2.4 ± 0.2
13 | CC(C)[C@H]1C(=O)N2CCC[C@H]2[C@]2(O)O[C@](NC(=O)[C@@H]3C=C4c5cccc6[nH]cc(c56)C[C@H]4N(C)C3)(C(C)C)C(=O)N12 [ergocornine] |  |  |  |  | activity as prolactin inhibitors (in words) (prolactin [3]): activity as prolactin inhibitors; dopamine receptor stimulation (in words) (dopamine receptors): stimulate dopamine receptors
14 | CC(C)[C@H]1C(=O)N2CCC[C@H]2[C@]2(O)O[C@](NC(=O)[C@@H]3C[C@@H]4c5cccc6[nH]cc(c56)C[C@H]4N(C)C3)(C(C)C)C(=O)N12 [dihydroergocornine] |  |  |  |  | activity as prolactin inhibitors (in words) (prolactin [3]): activity as prolactin inhibitors
